Non-standard residues stand in square brackets, D forms with d. Residues, ends and D or L forms follow the SMILES beside them. *: point of attachment. Bn = c1ccc(C*)cc1

One assay deals with plasma GH levels. Kind of assay: Peptide effects on NEMBUTAL-stimulated GH levels in anesthetized rats (sc bolus, jugular blood, RIA). The assay is classed as in vivo, rat. The procedure:
(§1) In this evaluation, the procedures described by W. A. Murphy et al., Endocrinology, 109:491-495 (1980), were employed.
In growth hormone (GH) experiments, male rats (Charles Rivers) were anesthetized with NEMBUTAL® (5 mg per 100 g/BW) which also served to maintain stimulated plasma GH levels. Exactly 30 minutes after the rats were anesthetized, 0.5 ml of saline or the test peptide in saline was administered as a sc bolus. A 1 ml blood sample was drawn from the jugular vein 15 minutes after the injection. For examining blocking effects of the analog on somatostatin, the cyclic peptide was given five minutes prior to somatostatin. GH levels were determined using NIADDKD rat GH RIA components.

The test system of another assay is somatostatin. In words: Somatostatin antagonist activity (blocking of exogenous somatostatin effects). The assay is classed as in vivo, rats. Conditions: result in words.
The subject of a further assay is glucagon release. Kind of assay: Basal hepatic portal glucagon levels in fasted rats. The note with it: after treatment, result in words. Type of assay: in vivo, rat.
Excerpt: as §1

For another assay, the system named is insulin release. In words: Basal hepatic portal insulin levels in fasted rats. The assay is classed as in vivo, rat. The note with it: after treatment, result in words.
Excerpt: as §1

Consider `C[C@@H](O)[C@@H]1NC(=O)[C@H](CCCCN)NC(=O)[C@@H](Cc2c[nH]c3ccccc23)NC(=O)[C@H](Cc2ccccc2)NC(=O)[C@@H]2CCCN2C1=O` [Cyclo(Pro--Phe--D-Trp--Lys--Thr), cyclo(L-prolyl-L-phenylalanyl-D-tryptophyl-L-lysyl-L-threonyl)] (cyclo(F[dW]KTP)), for which the “GH (ng/ml)” value in the assay on plasma GH levels (first experiment, dose 2 μg/100 g body weight sc, saline 389 ± 60) is listed as 730 + 110 ng/ml. In addition, the “GH” value with plasma GH levels (first experiment, dose 10 μg/100 g body weight sc, saline 389 ± 60) was 459 ± 100 ng/mL; in the assay on plasma GH levels (second experiment, dose 0.3 μg/100 g body weight sc, saline 648 ± 177) it was 1265 ± 318 ng/mL; with plasma GH levels (second experiment, dose 0.3 μg/100 g body weight sc, saline 648 ± 177, listed as cyclo(Pro-Phe-D-Trp-Lys-Thr)), 1265 ± 318 ng/mL; with plasma GH levels (second experiment, dose 0.6 μg/100 g body weight sc, saline 648 ± 177) it was 1072 ± 187 ng/mL; in the assay with plasma GH levels (second experiment, dose 1.2 μg/100 g body weight sc, saline 648 ± 177), 728 ± 143 ng/mL. In addition, in the assay with somatostatin, the somatostatin antagonist activity result is “has somatostatin antagonist activity”.

As to `C[C@@H](OCc1ccccc1)[C@@H]1NC(=O)[C@H](CCCCN)NC(=O)[C@@H](Cc2c[nH]c3ccccc23)NC(=O)[C@H](Cc2ccccc2)NC(=O)[C@@H]2CCCN2C1=O` [Cyclo[Pro--Phe--D-Trp--Lys--Thr(Bzl)], cyclo(L-prolyl-L-phenylalanyl-D-tryptophyl-L-lysyl-O-benzyl-L-threonyl)] (cyclo(F[dW]KT(Bn)P)), in the assay on glucagon release, the “basal hepatic portal glucagon levels” value was “significantly increased”. Moreover, in the assay on plasma GH levels (NEMBUTAL-anesthetized and stimulated rats, after injection, result in words), the “plasma growth hormone levels” value is “increased”. In addition, the “GH” value came out at 1724 ± 393 ng/mL in the assay on plasma GH levels (third experiment, dose 0.2 μg/100 g body weight sc, saline 497 ± 80); 1724 ± 383 ng/mL in the assay with plasma GH levels (third experiment, dose 0.2 μg/100 g body weight sc, saline 497 ± 80, listed as cyclo[Pro-Phe-D-Trp-Lys-Thr(Bzl)]); 812 ± 163 ng/mL in the assay with plasma GH levels (third experiment, dose 0.6 μg/100 g body weight sc, saline 497 ± 80). Further, the “basal hepatic portal insulin levels” value in the assay on insulin release is given as “significantly increased”. Also, the somatostatin antagonist activity entry with somatostatin was “very effective somatostatin antagonist”.

Consider `C[C@H](N)C(=O)NCC(=O)N[C@H]1CSSC[C@@H](C(=O)O)NC(=O)[C@H](CO)NC(=O)[C@H]([C@@H](C)O)NC(=O)[C@H](Cc2ccccc2)NC(=O)[C@H]([C@@H](C)O)NC(=O)[C@H](CCCCN)NC(=O)[C@H](Cc2c[nH]c3ccccc23)NC(=O)[C@H](Cc2ccccc2)NC(=O)[C@H](Cc2ccccc2)NC(=O)[C@H](CC(N)=O)NC(=O)[C@H](CCCCN)NC1=O` [Somatostatin, somatostatin], for which the “GH” value in the assay with plasma GH levels (first experiment, dose 0.4 μg/100 g body weight sc, blood 15 min after injection, saline 389 ± 60) is 152 ± 51 ng/mL; in the assay with plasma GH levels (third experiment, dose 0.5 μg/100 g body weight sc, saline 497 ± 80), 173 ± 46 ng/mL.

The values above are taken from patent US4505897A, “Cyclic pentapeptides displaying somatostatin antagonism and method of treatment of mammals therewith” (The Administrators of the Tulane Educational Fund, priority 1983, dated 1985).
